Data taken from the NIST ThermoML archive (doi:10.1016/j.jct.2018.04.018).
Numbers after ± are expanded uncertainties.

Experiment: molar heat capacity at constant pressure
Settings: 101.33 kPa, Liquid, DSC

CCCCCCCC[n+]1ccn(C)c1.F[P-](F)(F)(F)(F)F [1-octyl-3-methylimidazolium hexafluorophosphate]
Settings | molar heat capacity at constant pressure [J/K/mol]
253.15 K | 549.23 ± 21
258.15 K | 551.95 ± 21
263.15 K | 554.33 ± 21
268.15 K | 556.71 ± 21
273.15 K | 559.77 ± 22
278.15 K | 562.84 ± 22
283.15 K | 566.92 ± 22
288.15 K | 570.32 ± 22
293.15 K | 573.73 ± 22
298.15 K | 577.47 ± 22
303.15 K | 580.53 ± 22
308.15 K | 584.28 ± 23
313.15 K | 587.34 ± 23
318.15 K | 590.4 ± 23
323.15 K | 593.46 ± 23
328.15 K | 597.21 ± 23
333.15 K | 600.27 ± 23
338.15 K | 602.99 ± 23
343.15 K | 606.05 ± 23
348.15 K | 608.78 ± 23
353.15 K | 611.84 ± 24
358.15 K | 614.22 ± 24
363.15 K | 617.28 ± 24
368.15 K | 620.01 ± 24
373.15 K | 622.39 ± 24
378.15 K | 625.45 ± 24
383.15 K | 628.17 ± 24
388.15 K | 630.55 ± 25
393.15 K | 633.28 ± 25
398.15 K | 636.68 ± 25
403.15 K | 639.74 ± 25
408.15 K | 643.83 ± 25
413.15 K | 646.89 ± 25
